Results taken from patent publication US10149809B2, “Skin aging inhibitor and concentrate of resveratrol 3-O-α-glucoside” (priority 2014, dated 2018).

What was measured:
[1] = system: human skin model (EpiDerm EPI-200; MatTek); test: Skin cell activation effect, MTT survival rate in three-dimensional human skin model; type: cell-based; conditions: 100 μL, 72 hours, water control = 100%
Method: Using a three-dimensional human skin model, the skin cell activation effect of resveratrol 3-O-α-glucoside was investigated.
Resveratrol 3-O-α-glucoside was prepared into an aqueous solution having a concentration of 0.02, 0.05, 0.07, or 0.1 wt %, and the resulting solution was used as a sample solution. One-hundred microliters of the sample solution were administered to the horny layer side of the human skin model (EpiDerm EPI-200; MatTek), and cultured in 5 mL of a special medium (EPI-100-ASY) at 37° C. for 72 hours. After the culture, the survival rate of cells in the skin model was measured using the MTT (Thiazolyl Blue Tetrazolium Bromide) method based on the manual, and a relative ratio of the survival rate (cell growth improvement rate; %) after the administration of each of the sample solutions was calculated, taking as 100% the survival rate of a control group to which water not containing resveratrol 3-O-α-glucoside was administered.

Solubility in water = type: physicochemical
Method: (§1) Approximately 5 mg each of resveratrol 3-O-α-glucoside, resveratrol (Tokyo Chemical Industry Co., Ltd.), and resveratrol 3-O-β-glucoside (Tokyo Chemical Industry Co., Ltd.) was weighed, approximately 1 mL of water was added thereto, and the mixture was soaked in a water bath at 25° C. under light-tight conditions, and incubated for 20 hours with occasional stirring. After 20 hours, each of the samples was filtered through a 0.45 μm centrifugal filter, and then the concentration of each of the components in the filtrate was analyzed using HPLC under the same conditions as those described in Production Example 1 above. The dissolved concentration (w/v %) in water at 25° C. was thus determined.

[2] = system: skin model (MEL-312B; MatTek); test: Melanogenesis suppressing effect in skin model (amount of melanin, visual observation); type: cell-based; conditions: 16 days; for Relative Amount of Melanin: PBS control group = 100%; for Visual Observation: compared with PBS control group
Method: Resveratrol 3-O-α-glucoside, resveratrol (Tokyo Chemical Industry Co., Ltd.), or resveratrol 3-O-β-glucoside (Tokyo Chemical Industry Co., Ltd.) was prepared into a 0.2 wt % solution or suspension with the addition of PBS, and the resulting solution or suspension was used as a test substance. A skin model (MEL-312B; MatTek) was used, and 50 μL of the test substance was added to the horny layer side of the skin model and cultured in a special medium (EPI-100NMM-113; MatTek) at 37° C. for 16 days. On days 2, 4, 7, 9, 11, and 14, the medium and the test substance were replaced with fresh ones. As a control group, the same operation was performed using PBS instead of the test substance.
After 16 days of culture, the skin model was visually observed, and the amount of melanin in the skin model was evaluated. The amount of melanin was measured using the following method. Initially, the collected skin model was subjected to enzymatic degradation by proteinase-K, and was subsequently homogenated in PBS containing 1% triton X-100. Melanin was then extracted by washing with 10% TCA and ethanol. Next, the extracted melanin was dissolved in 0.5 mL of 1N-NaOH containing 10% DMSO at 80° C. for 2 hours, and the amount of melanin was quantified by measuring absorbance at 470 nm.
Resveratrol 3-O-α-glucoside was prepared into a 0.2 wt % solution, a 0.1 wt % solution, or a 0.01 wt % solution with the addition of PBS. The resulting solution was used as a test substance, and the melanogenesis suppressing effect was evaluated using the same method as that of Example 1 above. […]

[3] = Solubility in solvent containing glycerol; type: physicochemical
Method: as §1, with “Approximately 40” for “Approximately 5”, “approximately 70 mg” for “approximately 1 mL”, “of a solvent (whose composition is shown in Table 18) containing ethanol (Wako Pure Chemical Industries, Ltd.)” for “of water”, “for 15” for “for 20”, “After 15” for “After 20”, “%)” for “%) in water”
The solubility of resveratrol 3-O-α-glucoside was evaluated under the same conditions as those described in Example 18 above, except that a solvent (whose composition is shown in Table 19) containing glycerol (Wako Pure Chemical Industries, Ltd.) was used.

[4] = Solubility in solvent containing propylene glycol; type: physicochemical
Method: as §1, with “Approximately 40” for “Approximately 5”, “approximately 70 mg” for “approximately 1 mL”, “of a solvent (whose composition is shown in Table 18) containing ethanol (Wako Pure Chemical Industries, Ltd.)” for “of water”, “for 15” for “for 20”, “After 15” for “After 20”, “%)” for “%) in water”
The solubility of resveratrol 3-O-α-glucoside was evaluated under the same conditions as those described in Example 18 above, except that a solvent (whose composition is shown in Table 20) containing propylene glycol (Wako Pure Chemical Industries, Ltd.) was used.

[5] = Solubility in solvent containing ethanol; type: physicochemical
Method: as §1, with “Approximately 40” for “Approximately 5”, “approximately 70 mg” for “approximately 1 mL”, “of a solvent (whose composition is shown in Table 18) containing ethanol (Wako Pure Chemical Industries, Ltd.)” for “of water”, “for 15” for “for 20”, “After 15” for “After 20”, “%)” for “%) in water”

[6] = system: matrix metalloproteinase 1 (MMP1) gene; test: MMP1 gene expression in normal human dermal fibroblasts; type: cell-based; conditions: 0.001 wt %, 24 hours, control = 100%
Method: Using normal human dermal fibroblasts, the effect of resveratrol 3-O-α-glucoside on matrix metalloproteinase 1 (MMP1) and 9 (MMP9) genes in the dermis was investigated.
Normal human dermal fibroblasts were seeded into 12-well culture plates at 9×10^4 cells per well. As the medium, 10 vol % FBS (Fetal Bovine Serum)-containing DMEM medium (basal medium) was used, and the cells were preincubated in 5% CO2 at 37° C. for 24 hours. The medium was removed and then replaced with a basal medium supplemented with 0.001 wt % of resveratrol 3-O-α-glucoside, and the cells were cultured in 5% CO2 at 37° C. After 24 hours, total RNA was extracted from the cells, and the levels of expression of the MMP1 and MMP9 genes were quantified by real time PCR. As a control group, cells were cultured without resveratrol 3-O-α-glucoside, and total RNA collected from these cells was used.
Taking as 100% the level of expression of each of the MMP1 and MMP9 genes for the control group, a relative ratio of the expression level of each of the MMP1 and MMP9 genes for the resveratrol 3-O-α-glucoside-supplemented group (MMP1 and MMP9 gene expression ratios, %) was determined. In the measurement of the expression level of each of the MMP1 and MMP9 genes, GAPDH (glyceraldehyde 3-phosphate dehydrogenase) was used for internal standard correction.

OC[C@H]1O[C@H](Oc2cc(O)cc(C=Cc3ccc(O)cc3)c2)[C@H](O)[C@@H](O)[C@@H]1O [Resveratrol 3-O-α-Glucoside, resveratrol 3-O-α-glucoside]
Cell Growth Improvement Rate (%) ([1]; 0.02 wt % aqueous solution): 106% | Cell Growth Improvement Rate (%) ([1]; 0.05 wt % aqueous solution): 115% | Cell Growth Improvement Rate (%) ([1]; 0.07 wt % aqueous solution): 116% | Cell Growth Improvement Rate (%) ([1]; 0.1 wt % aqueous solution): 117% | Dissolved Concentration (μg/mL) in Water (Solubility in water; 20 h): 2900 µg/mL | Relative Amount of Melanin ([2]; 0.01 wt % in PBS): 88% | Visual Observation ([2]; 0.01 wt % in PBS): slightly whiter than the | Relative Amount of Melanin ([2]; 0.1 wt % in PBS): 67% | Relative Amount of Melanin ([2]; 0.2 wt % in PBS, 50 μL): 46% | dissolved concentration [3]: exceeded 20 w/v % | dissolved concentration [4]: exceeded 30 w/v % | Dissolved Concentration (w/v %) at 25° C. ([4]; 15 h): 0.3 w/v % | dissolved concentration [5]: exceeded 30 w/v % | Dissolved Concentration (w/v %) at 25° C. ([5]; 15 h): 0.3 w/v % | MMP1 Gene Expression Ratio (%) [6]: 85%

OC[C@H]1O[C@@H](Oc2cc(O)cc(/C=C/c3ccc(O)cc3)c2)[C@H](O)[C@@H](O)[C@@H]1O [Resveratrol 3-O-β-Glucoside, resveratrol 3-O-β-glucoside]
Dissolved Concentration (μg/mL) in Water (Solubility in water; water, 25° C., 20 hours): 370 µg/mL | Visual Observation ([2]; 0.2 wt % in PBS, 50 μL to horny layer side): the same as the control | Relative Amount of Melanin ([2]; 0.2 wt % in PBS, 50 μL): 79% | Dissolved Concentration (w/v %) at 25° C. ([3]; Glycerol:Water 0:100 (weight ratio)): 0.04 w/v % | Dissolved Concentration (w/v %) at 25° C. ([3]; Glycerol:Water 10:90 (weight ratio)): 0.05 w/v % | Dissolved Concentration (w/v %) at 25° C. ([3]; Glycerol:Water 25:75 (weight ratio)): 0.09 w/v % | Dissolved Concentration (w/v %) at 25° C. ([3]; Glycerol:Water 50:50 (weight ratio)): 0.3 w/v % | Dissolved Concentration (w/v %) at 25° C. ([3]; Glycerol:Water 75:25 (weight ratio)): 1.1 w/v % | Dissolved Concentration (w/v %) at 25° C. ([3]; Glycerol:Water 90:10 (weight ratio)): 1.9 w/v % | Dissolved Concentration (w/v %) at 25° C. ([3]; Glycerol:Water 100:0 (weight ratio)): 3.1 w/v % | Dissolved Concentration (w/v %) at 25° C. ([4]; Propylene Glycol:Water 0:100 (weight ratio)): 0.04 w/v % | Dissolved Concentration (w/v %) at 25° C. ([4]; Propylene Glycol:Water 5:95 (weight ratio)): 0.04 w/v % | Dissolved Concentration (w/v %) at 25° C. ([4]; Propylene Glycol:Water 10:90 (weight ratio)): 0.06 w/v % | Dissolved Concentration (w/v %) at 25° C. ([4]; Propylene Glycol:Water 15:85 (weight ratio)): 0.09 w/v % | Dissolved Concentration (w/v %) at 25° C. ([4]; Propylene Glycol:Water 20:80 (weight ratio)): 0.1 w/v % | Dissolved Concentration (w/v %) at 25° C. ([4]; Propylene Glycol:Water 25:75 (weight ratio)): 0.2 w/v % | Dissolved Concentration (w/v %) at 25° C. ([4]; Propylene Glycol:Water 50:50 (weight ratio)): 3.3 w/v % | Dissolved Concentration (w/v %) at 25° C. ([4]; Propylene Glycol:Water 75:25 (weight ratio)): 11.5 w/v % | Dissolved Concentration (w/v %) at 25° C. ([4]; Propylene Glycol:Water 90:10 (weight ratio)): 12.5 w/v % | Dissolved Concentration (w/v %) at 25° C. ([4]; Propylene Glycol:Water 100:0 (weight ratio)): 11.3 w/v % | Dissolved Concentration (w/v %) at 25° C. ([5]; Ethanol:Water 0:100 (weight ratio), 15 hours): 0.04 w/v % | Dissolved Concentration (w/v %) at 25° C. ([5]; Ethanol:Water 5:95 (weight ratio), 15 hours): 0.05 w/v % | Dissolved Concentration (w/v %) at 25° C. ([5]; Ethanol:Water 10:90 (weight ratio), 15 hours): 0.06 w/v % | Dissolved Concentration (w/v %) at 25° C. ([5]; Ethanol:Water 15:85 (weight ratio), 15 hours): 0.1 w/v % | Dissolved Concentration (w/v %) at 25° C. ([5]; Ethanol:Water 20:80 (weight ratio), 15 hours): 0.2 w/v % | Dissolved Concentration (w/v %) at 25° C. ([5]; Ethanol:Water 25:75 (weight ratio), 15 hours): 0.4 w/v % | Dissolved Concentration (w/v %) at 25° C. ([5]; Ethanol:Water 30:70 (weight ratio), 15 hours): 0.7 w/v % | Dissolved Concentration (w/v %) at 25° C. ([5]; Ethanol:Water 40:60 (weight ratio), 15 hours): 2.6 w/v % | Dissolved Concentration (w/v %) at 25° C. ([5]; Ethanol:Water 50:50 (weight ratio), 15 hours): 5.3 w/v % | Dissolved Concentration (w/v %) at 25° C. ([5]; Ethanol:Water 75:25 (weight ratio), 15 hours): 13.8 w/v % | Dissolved Concentration (w/v %) at 25° C. ([5]; Ethanol:Water 90:10 (weight ratio), 15 hours): 7.3 w/v % | Dissolved Concentration (w/v %) at 25° C. ([5]; Ethanol:Water 100:0 (weight ratio), 15 hours): 2.4 w/v %
